Measured values reported in patent US10376520B2, “Methods for the treatment of cardiovascular disorders” (Galapagos NV, priority 2015, dated 2019).

System: Subjects With Active Crohn's Disease
Assay: [HDL] determination, Study 5 (Crohn's disease)
Type: in vivo, human
Excerpt: Double-Blind, Randomized, Placebo-Controlled, Multi-Centre Study to Investigate the Efficacy and Safety of Compound 1 in Subjects With Active Crohn's Disease With Evidence of Mucosal Ulceration.
This is a double-blind, randomized, placebo-controlled, multi-centre Phase 2 study to investigate the efficacy and safety of Compound 1 administered once daily for the treatment of active CD with evidence of mucosal ulceration. The pharmacokinetics (including a PK substudy) and pharmacodynamics of Compound 1 and metabolite in CD will also be characterised.
A total of 180 eligible subjects will be randomized to receive Compound 1 or placebo in addition to their stable background treatment (eg, corticosteroids, aminosalicylates, or CD-related antibiotics). The study will consist of 2 parts, with total treatment duration of 20 weeks. Randomization in Part 1 will be stratified according the subject's previous anti-TNF exposure/response, CRP level at Screening, and oral corticosteroid use at visit Day −1.
After the first 10 weeks of treatment in Part 1, patients will be re-randomized for Part 2 as shown in the diagram below and will be stratified according to the subject's clinical response, previous anti-TNF exposure/response, and oral corticosteroid use at visit Day −1.
The following assays were conducted at Eurofins Global Central Laboratory, Bergschot 71, 4817 PA Breda, The Netherlands, and at Quest Diagnostics, Clinical Trials, Quest House, 125-135 Staines Road, Hounslow, Middlesex, TW3 3JB, United Kingdom. The assays for Study 5 were performed at BARC Europe, 3B, Industrie Park, Zwijnaarde, B-9052 Ghent, Belgium.
This assay relies on a homogeneous enzymatic colorimetric test. In the presence of magnesium ions, dextran sulfate selectively forms water-soluble complexes with LDL, VLDL and chylomicrons which are resistant to PEG-modified enzymes.
The cholesterol concentration of [HDL]-cholesterol is determined enzymatically by cholesterol esterase and cholesterol oxidase coupled with PEG to the amino groups (approx. 40%).
In the presence of peroxidase, the hydrogen peroxide generated reacts with 4-amino-antipyrine and Sodium N-(2-hydroxy-3-sulfopropyl)-3,5-dimethoxyaniline (HSDA) to form a purple-blue dye. The color intensity of this dye is directly proportional to the cholesterol concentration and is measured photometrically.
Human serum and plasma samples [HDL] determination was done on a Roche/Hitachi Cobas c 701/702 system which automatically calculate the analyte concentration of each sample. Samples containing precipitates are centrifuged before performing the assay.

[1] = 200 mg q.d. continued to week 20; week 2
[2] = 200 mg q.d. continued to week 20; week 4
[3] = 200 mg q.d. continued to week 20; week 6
[4] = 200 mg q.d. continued to week 20; week 10
[5] = 200 mg q.d. continued to week 20; week 12
[6] = 200 mg q.d. continued to week 20; week 16
[7] = 200 mg q.d. continued to week 20; week 20
[8] = 200 mg q.d. week 0 to 10, then 100 mg q.d. (N = 30), week 2
[9] = 200 mg q.d. week 0 to 10, then 100 mg q.d. (N = 30), week 4
[10] = 200 mg q.d. week 0 to 10, then 100 mg q.d. (N = 30), week 6
[11] = 200 mg q.d. week 0 to 10, then 100 mg q.d. (N = 30), week 10
[12] = 200 mg q.d. week 0 to 10, then 100 mg q.d. (N = 30), week 12
[13] = 200 mg q.d. week 0 to 10, then 100 mg q.d. (N = 30), week 16
[14] = 200 mg q.d. week 0 to 10, then 100 mg q.d. (N = 30), week 20
[15] = 200 mg q.d. week 0 to 10, then placebo (N = 23), week 2
[16] = 200 mg q.d. week 0 to 10, then placebo (N = 23), week 4
[17] = 200 mg q.d. week 0 to 10, then placebo (N = 23), week 6
[18] = 200 mg q.d. week 0 to 10, then placebo (N = 23), week 10
[19] = 200 mg q.d. week 0 to 10, then placebo (N = 23), week 12
[20] = 200 mg q.d. week 0 to 10, then placebo (N = 23), week 16
[21] = 200 mg q.d. week 0 to 10, then placebo (N = 23), week 20
[22] = 200 mg q.d. week 0 to 10, to 100 mg q.d. week 10 to 20; week 2

**Q.** Which “[HDL] Mean CFB - 10 weeks results” value (200 mg q.d. (N = 130), week 2) does the source give for `O=C(Nc1nc2cccc(-c3ccc(CN4CCS(=O)(=O)CC4)cc3)n2n1)C1CC1` [Compound 1, cyclopropanecarboxylic acid {5-[4-(1,1-dioxo-thiomorpholin-4-ylmethyl)-phenyl]-[1,2,4]triazolo[1,5-a]pyridin-2yl}-amide] here?
**A.** 0.222 mmol/L

**Q.** What about the “[HDL] Median CFB - 10 weeks results” value (200 mg q.d. (N = 130), week 2) of the same compound?
**A.** 0.210 mmol/L

**Q.** And the “[HDL] Mean CFB - 10 weeks results” value (200 mg q.d. (N = 130), week 4)?
**A.** 0.237 mmol/L

**Q.** What about the “[HDL] Median CFB - 10 weeks results” value (200 mg q.d. (N = 130), week 4) of the same compound?
**A.** 0.210 mmol/L

**Q.** And the “[HDL] Mean CFB - 10 weeks results” value (200 mg q.d. (N = 130), week 6)?
**A.** 0.243 mmol/L

**Q.** And the “[HDL] Median CFB - 10 weeks results” value (200 mg q.d. (N = 130), week 6)?
**A.** 0.250 mmol/L

**Q.** What about the “[HDL] Mean CFB - 10 weeks results” value (200 mg q.d. (N = 130), week 10) of the same compound?
**A.** 0.239 mmol/L

**Q.** And the “[HDL] Median CFB - 10 weeks results” value (200 mg q.d. (N = 130), week 10)?
**A.** 0.260 mmol/L

**Q.** And the “[HDL] Median CFB - 10 weeks results” value (200 mg q.d. (N = 130); week 2)?
**A.** 16.867%

**Q.** And the “[HDL] Median CFB - 10 weeks results” value (200 mg q.d. (N = 130); week 4)?
**A.** 15.333%

**Q.** And the “[HDL] Median CFB - 10 weeks results” value (200 mg q.d. (N = 130); week 6)?
**A.** 16.867%

**Q.** And the “[HDL] Median CFB - 10 weeks results” value (200 mg q.d. (N = 130); week 10)?
**A.** 15.789%

**Q.** And the “[HDL] Mean CFB - 20 weeks results” value [1]?
**A.** 18.29%

**Q.** And the “[HDL] Median CFB - 10 weeks results” value [1]?
**A.** 17.33%

**Q.** And the “[HDL] Mean CFB - 20 weeks results” value [2]?
**A.** 15.66%

**Q.** What about the “[HDL] Median CFB - 10 weeks results” value [2] of the same compound?
**A.** 9.91%

**Q.** And the “[HDL] Mean CFB - 20 weeks results” value [3]?
**A.** 19.93%

**Q.** And the “[HDL] Median CFB - 10 weeks results” value [3]?
**A.** 13.98%

**Q.** What about the “[HDL] Mean CFB - 20 weeks results” value [4] of the same compound?
**A.** 17.97%

**Q.** What about the “[HDL] Median CFB - 10 weeks results” value [4] of the same compound?
**A.** 12.50%

**Q.** What about the “[HDL] Mean CFB - 20 weeks results” value [5] of the same compound?
**A.** 16.97%

**Q.** And the “[HDL] Median CFB - 10 weeks results” value [5]?
**A.** 9.94%

**Q.** What about the “[HDL] Mean CFB - 20 weeks results” value [6] of the same compound?
**A.** 13.90%

**Q.** What about the “[HDL] Median CFB - 10 weeks results” value [6] of the same compound?
**A.** 12.22%

**Q.** And the “[HDL] Mean CFB - 20 weeks results” value [7]?
**A.** 11.15%

**Q.** And the “[HDL] Median CFB - 10 weeks results” value [7]?
**A.** 10.66%

**Q.** What about the “[HDL] Mean CFB - 20 weeks results” value [8] of the same compound?
**A.** 0.24 mmol/L

**Q.** And the “[HDL] Median CFB - 20 weeks results” value [8]?
**A.** 0.22 mmol/L

**Q.** What about the “[HDL] Mean CFB - 20 weeks results” value [9] of the same compound?
**A.** 0.31 mmol/L

**Q.** What about the “[HDL] Median CFB - 20 weeks results” value [9] of the same compound?
**A.** 0.22 mmol/L

**Q.** And the “[HDL] Mean CFB - 20 weeks results” value [10]?
**A.** 0.33 mmol/L

**Q.** What about the “[HDL] Median CFB - 20 weeks results” value [10] of the same compound?
**A.** 0.31 mmol/L

**Q.** What about the “[HDL] Mean CFB - 20 weeks results” value [11] of the same compound?
**A.** 0.33 mmol/L

**Q.** And the “[HDL] Median CFB - 20 weeks results” value [11]?
**A.** 0.26 mmol/L

**Q.** And the “[HDL] Mean CFB - 20 weeks results” value [12]?
**A.** 0.17 mmol/L

**Q.** What about the “[HDL] Median CFB - 20 weeks results” value [12] of the same compound?
**A.** 0.15 mmol/L

**Q.** What about the “[HDL] Mean CFB - 20 weeks results” value [13] of the same compound?
**A.** 0.11 mmol/L

**Q.** What about the “[HDL] Median CFB - 20 weeks results” value [13] of the same compound?
**A.** 0.03 mmol/L

**Q.** And the “[HDL] Mean CFB - 20 weeks results” value [14]?
**A.** 0.18 mmol/L

**Q.** And the “[HDL] Median CFB - 20 weeks results” value [14]?
**A.** 0.16 mmol/L

**Q.** What about the “[HDL] Mean CFB - 20 weeks results” value [15] of the same compound?
**A.** 0.18 mmol/L

**Q.** What about the “[HDL] Median CFB - 20 weeks results” value [15] of the same compound?
**A.** 0.18 mmol/L

**Q.** What about the “[HDL] Mean CFB - 20 weeks results” value [16] of the same compound?
**A.** 0.30 mmol/L

**Q.** What about the “[HDL] Median CFB - 20 weeks results” value [16] of the same compound?
**A.** 0.39 mmol/L

**Q.** And the “[HDL] Mean CFB - 20 weeks results” value [17]?
**A.** 0.15 mmol/L

**Q.** And the “[HDL] Median CFB - 20 weeks results” value [17]?
**A.** 0.16 mmol/L

**Q.** What about the “[HDL] Mean CFB - 20 weeks results” value [18] of the same compound?
**A.** 0.16 mmol/L

**Q.** And the “[HDL] Median CFB - 20 weeks results” value [18]?
**A.** 0.24 mmol/L

**Q.** What about the “[HDL] Mean CFB - 20 weeks results” value [19] of the same compound?
**A.** -0.12 mmol/L

**Q.** What about the “[HDL] Median CFB - 20 weeks results” value [19] of the same compound?
**A.** -0.03 mmol/L

**Q.** What about the “[HDL] Mean CFB - 20 weeks results” value [20] of the same compound?
**A.** -0.18 mmol/L

**Q.** And the “[HDL] Median CFB - 20 weeks results” value [20]?
**A.** -0.05 mmol/L

**Q.** What about the “[HDL] Mean CFB - 20 weeks results” value [21] of the same compound?
**A.** -0.21 mmol/L

**Q.** What about the “[HDL] Median CFB - 20 weeks results” value [21] of the same compound?
**A.** -0.08 mmol/L

**Q.** What about the “[HDL] Mean CFB - 20 weeks results” value [22] of the same compound?
**A.** 20.28%

**Q.** What about the “[HDL] Median CFB - 10 weeks results” value [22] of the same compound?
**A.** 17.11%
